We go through one substance from ChEMBL document CHEMBL4765389, “Antimicrobial and anti-inflammatory activities of short dodecapeptides derived from duck cathelicidin: Plausible mechanism of bactericidal action and endotoxin neutralization” (Eur J Med Chem, 2020).

The experiment has as its system Lipopolysaccharide (LPS). Kind of experiment: Displacement of BODIPY-TR cadaverine from Escherichia coli O111:B4 LPS at 10 uM measured for 100 sec by spectrofluorometry relative to control.

For the substance H-LWKKIYRKWKRW-NH2, the Activity came out at 75%.
